# In the supplement of paper PMC4862054:
# Legend:
# Details in all cases: incubation time: 72 h
# BT-474 = assay: normalised response (% of control), CellTiter-Glo; higher = more viable cells (100 = DMSO, 0 = benzethonium chloride kill control)
# Summary of the method: (§1)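 In 384-well plates holding compound at 5 concentrations in 10-fold steps over a 10,000-fold range specific to each compound, breast cancer cell lines were seeded as 20 µl suspension and incubated 72 h. CellTox Green fluorescence was measured at 485/520 nm, after which CellTiter-Glo luminescence was measured following 10 min at room temperature. Plate signals were normalised to 0.1 % DMSO (100) and a positive kill control (0), and each value is the normalised signal at a single concentration.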
# HDQ-P1 = assay: as above
# Summary of the method: as §1
# MCF-10A = assay: as above
# Summary of the method: as §1
# MDA-MB-231 = assay: as above
# Summary of the method: as §1
# MDA-MB-436 = assay: as above
# Summary of the method: as §1
# CAL-120 = assay: as above
# Summary of the method: as §1
# HCC1143 = assay: as above
# Summary of the method: as §1
# MFM-223 = assay: as above
# Summary of the method: as §1
# BT-549 = assay: as above
# Summary of the method: as §1
# CAL-51 = assay: as above
# Summary of the method: as §1
# SK-BR-3 = assay: as above
# Summary of the method: as §1
# CAL-148 [1] = assay: as above
# Summary of the method: as §1
# Hs578T = assay: as above
# Summary of the method: as §1
# HCC1937 = assay: as above
# Summary of the method: as §1
# CAL-85-1 = assay: as above
# Summary of the method: as §1
# MDA-MB-468 = assay: as above
# Summary of the method: as §1
# HCC1599 [2] = assay: as above
# Summary of the method: as §1
# MDA-MB-453 = assay: as above
# Summary of the method: as §1
# CAL-148 [3] = assay: normalised response (% of control), CellTox Green; higher = less cell death (100 = DMSO, 0 = benzethonium chloride kill control)
# Summary of the method: as §1
# HCC1599 [4] = assay: as above
# Summary of the method: as §1
smiles,measurement,setting,value
Nc1nc(Cl)nc2c1ncn2[C@@H]1O[C@H](CO)[C@@H](O)[C@@H]1F [Clofarabine] (1000 nM),normalised response,BT-474,78.7%
same,normalised response,HDQ-P1,79.4%
same,normalised response,MCF-10A,68.1%
same,normalised response,MDA-MB-231,91%
same,normalised response,MDA-MB-436,22.9%
same,normalised response,CAL-120,75.3%
same,normalised response,HCC1143,44.1%
same,normalised response,MFM-223,103%
same,normalised response,BT-549,35.7%
same,normalised response,CAL-51,26.9%
same,normalised response,SK-BR-3,42.7%
same,normalised response,CAL-148 [1],58.5%
same,normalised response,Hs578T,91.9%
same,normalised response,HCC1937,89.9%
same,normalised response,CAL-85-1,47.4%
same,normalised response,MDA-MB-468,43.7%
same,normalised response,HCC1599 [2],61.7%
same,normalised response,MDA-MB-453,127%
same,normalised response,CAL-148 [3],67.1%
same,normalised response,HCC1599 [4],81.2%
Nc1nc(Cl)nc2c1ncn2[C@@H]1O[C@H](CO)[C@@H](O)[C@@H]1F [Clofarabine] (10000 nM),normalised response,CAL-148 [3],65.1%
same,normalised response,HCC1599 [4],93.9%
CCN(CC)CCOc1ccc(C(=C(Cl)c2ccccc2)c2ccccc2)cc1 [Clomifene] (10000 nM),normalised response,CAL-148 [3],79.6%
same,normalised response,HCC1599 [4],48.6%
C[C@@H]1C[C@H]2[C@@H]3CCC4=CC(=O)C=C[C@]4(C)[C@@]3(F)[C@@H](O)C[C@]2(C)[C@@]1(O)C(=O)CO [Dexamethasone] (1000 nM),normalised response,BT-474,139%
same,normalised response,HDQ-P1,83.6%
same,normalised response,MCF-10A,80.6%
same,normalised response,MDA-MB-231,159%
same,normalised response,MDA-MB-436,104%
same,normalised response,CAL-120,68.7%
same,normalised response,HCC1143,97.6%
same,normalised response,MFM-223,93.5%
same,normalised response,BT-549,102%
same,normalised response,CAL-51,124%
same,normalised response,SK-BR-3,83.5%
same,normalised response,CAL-148 [1],92.5%
same,normalised response,Hs578T,108%
same,normalised response,HCC1937,98.1%
same,normalised response,CAL-85-1,112%
same,normalised response,MDA-MB-468,102%
same,normalised response,HCC1599 [2],97.8%
same,normalised response,MDA-MB-453,84.6%
same,normalised response,HCC1599 [4],87%
C[C@@H]1C[C@H]2[C@@H]3CCC4=CC(=O)C=C[C@]4(C)[C@@]3(F)[C@@H](O)C[C@]2(C)[C@@]1(O)C(=O)CO [Dexamethasone] (10000 nM),normalised response,CAL-148 [3],100%
same,normalised response,HCC1599 [4],94.4%
CC(C)C(=O)Nc1ccc([N+](=O)[O-])c(C(F)(F)F)c1 [Flutamide] (10000 nM),normalised response,HCC1599 [4],103%
COc1cc2c(Oc3ccc(NC(=O)C4(C(=O)Nc5ccc(F)cc5)CC4)cc3F)ccnc2cc1OCCCN1CCOCC1 [Foretinib] (1000 nM),normalised response,CAL-148 [3],33.1%
same,normalised response,HCC1599 [4],92%
NC(=O)NO [Hydroxyurea] (100000 nM),normalised response,CAL-148 [3],88.3%
same,normalised response,HCC1599 [4],104%
O=NN(CCCl)C(=O)NC1CCCCC1 [Lomustine] (10000 nM),normalised response,CAL-148 [3],94.2%
same,normalised response,HCC1599 [4],103%
O=C(O)CC[C@H]1CC[C@@](c2cc(F)ccc2F)(S(=O)(=O)c2ccc(Cl)cc2)CC1 [MK-0752] (1000 nM),normalised response,HCC1599 [4],109%
NC(=O)c1cccc2cn(-c3ccc([C@@H]4CCCNC4)cc3)nc12 [MK-4827] (10000 nM),normalised response,CAL-148 [3],79.6%
same,normalised response,HCC1599 [4],97.4%
CO[C@H](C(=O)[C@@H](O)[C@@H](C)O)[C@@H]1Cc2cc3cc(O[C@H]4C[C@@H](O[C@@H]5C[C@@H](O)[C@H](O)[C@@H](C)O5)[C@H](O)[C@@H](C)O4)c(C)c(O)c3c(O)c2C(=O)[C@H]1O[C@H]1C[C@@H](O[C@@H]2C[C@@H](O)[C@@H](O[C@@H]3C[C@](C)(O)[C@H](O)[C@@H](C)O3)[C@@H](C)O2)[C@H](O)[C@@H](C)O1 [Plicamycin] (10000 nM),normalised response,CAL-148 [3],68.9%
same,normalised response,HCC1599 [4],87.9%
C[C@]12C=CC(=O)C=C1CC[C@@H]1[C@@H]2C(=O)C[C@@]2(C)[C@H]1CC[C@]2(O)C(=O)CO [Prednisone] (10000 nM),normalised response,CAL-148 [3],100%
same,normalised response,HCC1599 [4],102%
CO[C@H]1C[C@@H]2CC[C@@H](C)[C@@](O)(O2)C(=O)C(=O)N2CCCC[C@H]2C(=O)O[C@H]([C@H](C)C[C@@H]2CC[C@@H](O)[C@H](OC)C2)CC(=O)[C@H](C)/C=C(\C)[C@@H](O)[C@@H](OC)C(=O)[C@H](C)C[C@H](C)/C=C/C=C/C=C/1C [Sirolimus] (100 nM),normalised response,CAL-148 [3],94.4%
same,normalised response,HCC1599 [4],106%
CN1CCN(c2nc(C3=C(c4c[nH]c5ccccc45)C(=O)NC3=O)c3ccccc3n2)CC1 [Sotrastaurin] (10000 nM),normalised response,HCC1599 [4],102%
CC/C(=C(\c1ccccc1)c1ccc(OCCN(C)C)cc1)c1ccccc1 [Tamoxifen] (10000 nM),normalised response,CAL-148 [3],80.1%
same,normalised response,HCC1599 [4],80.4%
C[C@@H](C(=O)O)c1ccc(-c2ccccc2)c(F)c1 [Tarenflurbil] (1000 nM),normalised response,BT-474,92%
same,normalised response,HDQ-P1,94.7%
same,normalised response,MCF-10A,90.1%
same,normalised response,MDA-MB-231,95%
same,normalised response,MDA-MB-436,100%
same,normalised response,CAL-120,96.5%
same,normalised response,HCC1143,92.5%
same,normalised response,MFM-223,95%
same,normalised response,BT-549,99.3%
same,normalised response,CAL-51,119%
same,normalised response,SK-BR-3,87.8%
same,normalised response,CAL-148 [1],91.7%
same,normalised response,Hs578T,101%
same,normalised response,HCC1937,94.7%
same,normalised response,CAL-85-1,98.8%
same,normalised response,MDA-MB-468,94.8%
same,normalised response,HCC1599 [2],106%
same,normalised response,MDA-MB-453,96%
same,normalised response,HCC1599 [4],96.3%
Cn1nnc2c(C(N)=O)ncn2c1=O [Temozolomide] (10000 nM),normalised response,CAL-148 [3],102%
same,normalised response,HCC1599 [4],99.2%
CC[C@@H]1C(=O)N(C)c2cnc(Nc3ccc(C(=O)N[C@H]4CC[C@H](N5CCN(CC6CC6)CC5)CC4)cc3OC)nc2N1C(C)C [Volasertib] (1000 nM),normalised response,CAL-148 [3],85.8%
same,normalised response,HCC1599 [4],74.2%
